Key:
[1] = tested on: conscious guinea pigs exposed to aerosol histamine; test: Protection against histamine-evoked asthma in conscious guinea pigs; format: in vivo, guinea pig; settings: for Collapsed n: 8 animals; for % collapse / Latency time of collapse: dose-response, four hours before exposure
Method: Test methods: Guinea pigs (Dunki-Hartley strain, 190±30 g) were fasted overnight but given water ad libidum. The animals were restrained individually in a glass chamber and exposed to aerosol histamine generated by a nebulizer from a 0.2% aqueous solution of histamine under constant pressure at dose of 0.5 ml/min for a period of 15 sec. The animal was removed from the chamber, and its behavior was monitored. A sign of collapse and the latency time from exposure to collapse were recorded. Only the animals with latency time less than 120 sec, as an indication of sensitive to histamine, were chosen for later experiments. The animals chosen were allowed to recover completly by resting for 24 hours before experiments. Test compounds and racemic bambuterol hydrochloride were dissolved in saline.
Time course of the effect of test compounds: R-Bambuterol hydrochloride or racemic bambuterol hydrochloride at 2, 4 and 8 mg/kg, and vehicle alone, were administered to the guinea pigs orally via a stomach tube. Exposure of treated animals to aerosol histamine (as above) was done at 1, 4 and 24 hours after treatment. For each experimental group, there were a total of 8 animals with equal number of both sexes, and no repeated exposure was made for individual experimental animals.
Study of dose-response of test compounds: Four hours before the exposure to aerosol histamine, animals were randomized into groups (n=8, equal male and female), and given R-bambuterol hydrochloride or racemic bambuterol in doses of 0.25, 0.5, 1.0, 2.0, 4.0 and 8.0 mg/kg, and vehicle control, orally via a stomach tube. The numbers of collapsed animal as a result of asthmatic reaction to aerosol histamine were counted, and the latency times were recorded. Both of these parameters were used as quantitative measurements of the protective effects of the treatments on bronchospasm evoked by aerosol histamine.

[2] = tested on: sensitized conscious guinea pigs exposed to aerosol ovalbumin; test: Protection against allergic bronchospasm in ovalbumin-sensitized conscious guinea pigs; format: in vivo, guinea pig
Method: Test method: Guinea pigs (Dunkin-Hartley strain, 200±10 g, equal sexes) were used in this study. Ovalbumin (5%) solution was injected into guinea pigs subcutaneously and intraperitoneally to sensitize the animals. Male and female sensitized animals were kept separately for 14 days, and food and water was available ad libitum. On day 14 after sensitization, animals were randomized into groups of 8 each. The animals were treated orally with saline (control) or various concentrations of R-bambuterol or racemic bambuterol in saline. Four hours after the treatment, each animal was restrained in a glass chamber. After stabilization the animal was exposed to an aerosol of ovalbumin generated by a nebulizer from a 5% solution of ovalbumine at a rate of 0.5 ml/min for a period of 15 seconds. The animal was removed from the chamber, and the behavior of the animal was monitored. The number of the sensitized animals which collapsed were counted, and the latency time, i.e. the time from the exposure to aerosol ovalbumin to the collapse of the animal, was recorded.

rats = test: Cardiovascular effects in anesthetized rats; format: in vivo; settings: 30 mg/kg intravenously
Source text: Test method: Rats (Sprague Dawley, 250-300 g) were randomized into two groups (n=6, equal sexes). After anesthesia, plastic tubing was introduced into a carotid artery of each animal and connected to pressure transducers to record mean artery pressure (MBP) and heart rate (HR). Another tube was introduced into the left ventricular chamber via the another carotid artery and connected to a pressure transducer. Left ventricular systolic pressure (LVSP) and the first order of differential of LVSP (dp/dt) as an index for inotropic effects were recorded. R-Bambuterol and racemic bambuterol hydrochloride were dissolved in saline and administrated intravenously at 30 mg/kg to each animal. The HR, MBP and Max dp/dt were measured before treatment (control) and after the treatments when the maximum response occurred, and 20 min after treatment as indication of recovery.

[3] = in plasma; cited from earlier work

SMILES: CN(C)C(=O)Oc1cc(OC(=O)N(C)C)cc(C(O)CNC(C)(C)C)c1 (stereo not drawn) [RS-bambuterol, bambuterol]
- Collapsed % ([1]; 2 mg/kg oral, 1st Hour): 75.0%
- Latency ([1]; 2 mg/kg oral, 1st Hour): 168 ± 61 s
- Collapsed n ([1]; 2 mg/kg oral, 1st Hour): 6.0
- Collapsed % ([1]; 2 mg/kg oral, 4th Hour): 50.0%
- Latency ([1]; 2 mg/kg oral, 4th Hour): 227 ± 56 s
- Collapsed n ([1]; 2 mg/kg oral, 4th Hour): 4.0
- Collapsed % ([1]; 2 mg/kg oral, 24th Hour): 50.0%
- Latency ([1]; 2 mg/kg oral, 24th Hour): 208 ± 65 s
- Collapsed n ([1]; 2 mg/kg oral, 24th Hour): 5.0
- Collapsed % ([1]; 4 mg/kg oral, 1st Hour): 62.5%
- Latency ([1]; 4 mg/kg oral, 1st Hour): 199 ± 63 s
- Collapsed n ([1]; 4 mg/kg oral, 1st Hour): 5.0
- Collapsed % ([1]; 4 mg/kg oral, 4th Hour): 25.0%
- Latency ([1]; 4 mg/kg oral, 4th Hour): 299 ± 51 s
- Collapsed n ([1]; 4 mg/kg oral, 4th Hour): 2.0
- Collapsed % ([1]; 4 mg/kg oral, 24th Hour): 37.5%
- Latency ([1]; 4 mg/kg oral, 24th Hour): 287 ± 57 s
- Collapsed n ([1]; 4 mg/kg oral, 24th Hour): 3.0
- Collapsed % ([1]; 8 mg/kg oral, 1st Hour): 37.5%
- Latency ([1]; 8 mg/kg oral, 1st Hour): 260 ± 66 s
- Collapsed n ([1]; 8 mg/kg oral, 1st Hour): 3.0
- Collapsed % ([1]; 8 mg/kg oral, 4th Hour): 0.0%
- Latency ([1]; 8 mg/kg oral, 4th Hour): >360 s
- Collapsed n ([1]; 8 mg/kg oral, 4th Hour): 0.0
- Collapsed % ([1]; 8 mg/kg oral, 24th Hour): 25.0%
- Latency ([1]; 8 mg/kg oral, 24th Hour): 303 ± 54 s
- Collapsed n ([1]; 8 mg/kg oral, 24th Hour): 2.0
- % collapse ([1]; 0.25 mg/kg oral): 100%
- Latency time of collapse ([1]; 0.25 mg/kg oral): 61 s
- % collapse ([1]; 0.5 mg/kg oral): 87.5%
- Latency time of collapse ([1]; 0.5 mg/kg oral): 114 s
- % collapse ([1]; 1 mg/kg oral): 75%
- Latency time of collapse ([1]; 1 mg/kg oral): 151 s
- % collapse ([1]; 2 mg/kg oral): 50%
- Latency time of collapse ([1]; 2 mg/kg oral): 227 s
- % collapse ([1]; 4 mg/kg oral): 25%
- Latency time of collapse ([1]; 4 mg/kg oral): 299 s
- % collapse ([1]; 8 mg/kg oral): 0%
- Latency time of collapse ([1]; 8 mg/kg oral): >360 s
- Duration of protective effects ([1]; oral 2 to 8 mg/kg): 24 h
- Onset of protective effects after administration ([1]; oral 2 to 8 mg/kg): one
- Time of maximum protective effects after administration ([1]; oral 2 to 8 mg/kg): 4 h
- Dose at which full protective effect was seen ([1]; oral, collapse after aerosol histamine): 8 mg/kg
- ED50 (protection against collapse) ([1]; oral, four hours before aerosol histamine): 1.68 mg/kg
- Dose at which maximum effects on latency were seen ([1]; oral, latency time to collapse): 8 mg/kg
- % collapsed ([2]; 1 mg/kg oral): 75%
- Latency time ([2]; 1 mg/kg oral): 156 ± 38 s
- Number collapsed ([2]; 1 mg/kg oral (n = 8), four hours before aerosol ovalbumin): 6
- % collapsed ([2]; 4 mg/kg oral): 38%
- Latency time ([2]; 4 mg/kg oral): 174 ± 21 s
- Number collapsed ([2]; 4 mg/kg oral (n = 8)): 3
- % collapsed ([2]; 8 mg/kg oral): 25%
- Number collapsed ([2]; 8 mg/kg oral (n = 8)): 2
- Latency time ([2]; 8 mg/kg oral, listed as Racemic bambuterol): 316 ± 36 s
- Latency time ([2]; 8 mg/kg oral, listed as racemic bambuterol): 316 ± 36 s
- MBP 20 min after Δ, % of control (rats; 20 min after treatment): 8.3%
- MBP, 20 min after Δ (rats; 20 min after treatment): 1.1 ± 0.4 Kpa
- Maxdp/dt 20 min after Δ, % of control (rats; 20 min after treatment): 4.8%
- Maxdp/dt, 20 min after Δ (rats; 20 min after treatment): 13 ± 3.8 Kpa/sec
- HR 20 min after Δ, % of Control (rats; 20 min after treatment, listed as Rac-Bambuterol): 9.5%
- HR 20 min after Δ, % of Control (rats; 20 min after treatment, listed as racemic bambuterol hydrochloride): 9.5%
- HR Treatment Δ, % of Control (rats; maximum response): 20.6%
- HR, Treatment Δ (rats; maximum response): 85.8 ± 5 Beat/min
- MBP Treatment Δ, % of control (rats; maximum response): 31.6%
- MBP, Treatment Δ (rats; maximum response): 4.2 ± 0.5 Kpa
- Maxdp/dt, Treatment Δ (rats; maximum response): 65.4 ± 9 Kpa/sec
- Maxdp/dt Treatment Δ, % of control (rats; maximum response, listed as Rac-Bambuterol): 24.4%
- Maxdp/dt Treatment Δ, % of control (rats; maximum response, listed as racemic bambuterol): 24.4%
- Fraction of absorbed bambuterol hydrolyzed to terbutaline [3]: about 50%
